Results from patent US10138222B2, “Substituted benzamides as RIPK2 inhibitors” (Boehringer Ingelheim International GmbH, priority 2016, dated 2018).

Target: RIPK2 (Homo sapiens (Human), UniProt O43353)
Assay: RIPK2 inhibition, ADP-Glo Kinase Assay
Type: biochemical
Conditions: 8His-RIPK2 FL enzyme 8 nM, ATP 5 μM, 15 minutes pre-incubation, 60 minutes at 37° C., luminescence
Outline: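 Full-length 8His-RIPK2 (8 nM) preincubated 15 min at RT with compound (1% DMSO), then 5 μM ATP added for 60 min at 37 °C in HEPES pH 7.5 buffer with Mg2+/Mn2+. ADP measured by ADP-Glo luminescence; activity expressed as % of vehicle control, no-enzyme wells as low control.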

RIPK2, sequence (O43353 whole entry): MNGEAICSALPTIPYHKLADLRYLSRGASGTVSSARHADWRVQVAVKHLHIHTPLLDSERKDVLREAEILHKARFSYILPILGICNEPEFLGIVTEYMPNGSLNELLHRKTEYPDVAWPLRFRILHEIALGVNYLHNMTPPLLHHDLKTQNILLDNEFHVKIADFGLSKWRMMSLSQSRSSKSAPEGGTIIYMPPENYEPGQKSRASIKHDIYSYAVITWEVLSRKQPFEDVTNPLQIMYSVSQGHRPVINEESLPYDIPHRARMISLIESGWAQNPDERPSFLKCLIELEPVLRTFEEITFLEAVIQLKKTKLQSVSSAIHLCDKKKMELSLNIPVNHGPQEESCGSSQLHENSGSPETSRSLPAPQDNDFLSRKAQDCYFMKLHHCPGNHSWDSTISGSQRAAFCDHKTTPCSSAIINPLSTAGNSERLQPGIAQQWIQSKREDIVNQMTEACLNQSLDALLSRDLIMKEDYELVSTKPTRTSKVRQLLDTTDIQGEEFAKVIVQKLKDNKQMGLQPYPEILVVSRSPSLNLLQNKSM

Cc1ccc(C(=O)NC2CC2)cc1-c1cnn(-c2cncc(NC3CCN(CC4COCCO4)CC3)c2)c1 (stereo not shown) [Example 168, N-cyclopropyl-3-[1-(5-{[1-(1,4-dioxan-2-ylmethyl)piperidin-4-yl]amino}pyridin-3-yl)-1H-pyrazol-4-yl]-4-methylbenzamide]
IC50: 0.95 nM

Cc1cc(F)c(C(=O)NC2CC2)cc1-c1cnn(-c2cncc(N[C@H]3CCN(C)C[C@H]3F)c2)c1 [Example 169]
IC50: 1.3 nM

Cc1cc(F)c(C(=O)NC2CC2)cc1-c1cnn(-c2cncc(N[C@@H]3CCN(C)C[C@@H]3F)c2)c1 [Example 170]
IC50: 1.8 nM

Cc1cc(F)c(C(=O)NC2CC2)cc1-c1cnn(-c2cncc(N3CCC(N(C)C)CC3)c2)c1 [Example 171, N-Cyclopropyl-5-[1-(4-dimethyl-amino-3,4,5,6-tetrahydro-2H-[1,3″]bipyridinyl-5″-yl)-1H-pyrazol-4-yl]-2-fluoro-4-methyl-benzamide]
IC50: 1.4 nM

Cc1cc(F)c(C(=O)NC2CC2)cc1-c1cnn(-c2cncc(OC[C@H]3CCN(C)C3)c2)c1 [Example 172, N-Cyclopropyl-2-fluoro-4-methyl-5-{1-[5-((S)-1-methyl-pyrrolidin-3-ylmethoxy)-pyridin-3-yl]-1H-pyrazol-4-yl}-benzamide]
IC50: 1.8 nM

CO[C@@H]1CN(C)CC[C@@H]1Nc1cncc(-n2cc(-c3cc(C(=O)NC4CC4)c(F)cc3Cl)cn2)c1 [Example 173, 4-Chloro-N-cyclopropyl-2-fluoro-5-{1-[5-((3R,4S)-3-methoxy-1-methyl-piperidin-4-ylamino)-pyridin-3-yl]-1H-pyrazol-4-yl}-benzamide]
IC50: 1.8 nM

Cc1cc(F)c(C(=O)NC2CC2)cc1-c1cnn(-c2cncc(NC3CCN(CCF)CC3)c2)c1 [Example 174, N-Cyclopropyl-2-fluoro-5-(1-{5-[1-(2-fluoro-ethyl)-piperidin-4-ylamino]-pyridin-3-yl}-1H-pyrazol-4-yl)-4-methyl-benzamide]
IC50: 1.5 nM
